{
  "source": "paper PMC11802567",
  "about": "“Anti-cancer activity of synthetic gefitinib-1,2,3-triazole derivatives against Hela cells via induction of apoptosis” (Frontiers in Chemistry, 2025)",
  "key": {"Hela cells [1]": {"test_system": "Hela cells", "design": "method as in Khanam et al., 2019", "details": "ref Khanam et al., 2019; cited from earlier work"}, "Hela cells [2]": {"test_system": "Hela cells", "assay": "MTT cell viability assay, Hela cells", "assay_type": "cell-based", "details": "Homo sapiens, 48 h; for viability at 10 µM: mean ± SEM (n = 3)"}, "HEK293T cells": {"test_system": "HEK293T cells", "assay": "MTT cell viability assay, HEK293T cells", "assay_type": "cell-based", "details": "Homo sapiens, HEK-293T, 48 h, tested 0-40 μM", "protocol": "(§1) To define the effects of compound c13 on cancer cell proliferation, the half-maximal inhibitory concentration (IC50) of compound c13 in Hela cells was calculated. Hela cells were treated with compound c13 at different concentrations (0 μM, 1 μM, 5 μM, 10 μM, 20 μM, and 40 μM) respectively for 48 h, and the cell viability was detected using the MTT method. […]. […] In contrast, its effect on the proliferation of HEK293T and NIH3T3 cells was minimal, with both IC50 values exceeding 100 μM.\n(§2) Figure S1. The effect of compound c13 on the survival rate of HEK293T, NIH3T3, and Hela cells. compound c13 (0, 10, 20, and 40 μM) was used to treat HEK293T, NIH3T3, and Hela cells for 48 hours, and the cell survival rate was detected using the MTT method (n=3)."}, "Hela cells [3]": {"test_system": "Hela cells", "assay": "Morphological profiles of Hela cells by microscope", "assay_type": "cell-based, human", "details": "0, 5, 10, 20 μM", "protocol": "FIGURE 2 Anti-proliferative Effects of compound c13 on Hela cells. (A) Dose-dependent cytotoxicity of compound c13, assessed at concentrations ranging from 0 to 40 μM on HeLa cells. Cell viability was plotted against the logarithm of compound c13 concentrations (n = 3). (B) Morphological profiles of Hela cells were taken by microscope after treatment with compound c13 at different doses (0, 5, 10, and 20 μM) (n = 3). (C) Representative photomicrographs of plate colony formation assay data with compound c13 at different doses (0, 5, 10, and 20 μM) (n = 3).\n(§3) To validate the impact of compound c13 on cell proliferation, plate clone formation assay was performed."}, "Hela cells [4]": {"test_system": "Hela cells", "assay": "Apoptosis assay, Annexin V-FITC/PI flow cytometry", "assay_type": "cell-based, human", "details": "20 μM, 48 h", "protocol": "To assess whether the anti-proliferative effects of compound c13 on Hela cells were associated with apoptosis, cell apoptosis after treatment of compound c13 was measured using Annexin V-FITC and propidium iodide (PI) staining by flow cytometer. […] Compared with the normal control group, compound c13 at 20 μM markedly raised the apoptotic ratio of Hela cells to 62.03% ± 9.48%.\nHela cells with a density of 1.5 × 10^5 cells/well were seeded in 12-well plates overnight for adhesion. The cells were treated with different concentrations of compounds (0, 5, 10, and 20 μM) for 48 h. After treatment, the cells were washed with PBS and stained with Annexin V-FITC and Propidium Iodide (PI) for 15 min in the dark. Cell apoptosis rate was detected by BD Accuri C6 Plus flow cytometry (BD Biosciences) and all analyses were performed with FlowJo software."}, "Hela cells [5]": {"test_system": "Hela cells", "assay": "Cell cycle analysis by flow cytometry (PI)", "assay_type": "cell-based, human", "details": "48 h", "protocol": "To further evaluate the effect of compound c13 on the cell cycle, the cell cycle distributions of Hela cells after treatment of compound c13 were detected by flow cytometry.\nHela cells with a density of 1.5 × 10^5 cells/well were seeded in 12-well plates overnight. Different concentrations of compounds (0, 5, 10, and 20 μM) were added to treat the cells for 48 h. After treatment, the cells were washed with PBS and then the cells were fixed with 70% ethanol at −20°C overnight. Subsequently, the cells were stained with PI staining solution containing 10 μg/mL RNAase for 30 min in the dark. The data was collected by BD Accuri C6 Plus flow cytometry (BD Biosciences). All analyses were performed with FlowJo software."}, "Hela cells [6]": {"test_system": "Hela cells", "assay": "Plate clone formation assay", "assay_type": "cell-based, human", "details": "0, 5, 10, 20 μM, dose-dependent", "protocol": "as §3\nHela cells with a density of 5 × 10^2 cells/well were seeded in 6-well plates overnight. The cells were treated with different concentrations of compounds (0, 5, 10, and 20 μM) were added and continued to be cultured at 37°C with 5% CO2. When more than 50 cell clone formations were visible, the culture medium was discharged. Then, the cells were fixed with 2 mL of 4% paraformaldehyde for 15 min and stained with 2 mL of crystal violet solution at room temperature for 15 min. A microscope was used to take photos and count the number of cell clones."}, "NIH3T3 cells": {"test_system": "NIH3T3 cells", "assay": "MTT cell viability assay, NIH3T3 cells", "assay_type": "cell-based", "details": "Mus musculus, 48 h, tested 0-40 μM", "protocol": "as §1, §2"}, "[7]": {"test_system": "Bax, Bcl-2, caspase 9, caspase 3, PARP1 in Hela cells", "assay": "Western blot of apoptosis-associated proteins in Hela cells", "assay_type": "cell-based, human", "details": "10 and 20 μM", "from_the_text": "To explore whether the induction of apoptosis caused by compound c13 was associated with the activation of the apoptosis-related protein, a western blot was used to detect the expression of the protein including Bax and Bcl-2. […] Furthermore, the ratio of Bax to Bcl-2 was raised after being treated with compound c13, leading to apoptosis in Hela cells.\nTo determine the potential function of compound c13 in the regulation of the apoptosis signaling pathway, downstream key proteins containing caspase 3, caspase 9, and PARP1 were detected by western blot. […] Besides, a corresponding increase in the levels of cleaved-caspase 3, and cleaved-PARP1 was observed (Figure 6).\nWhole cell extracts were prepared by lysing cells on ice for 30 min using RIPA lysis buffer (Beyotime Biotechnology, Shanghai, China). Following centrifugation at 12, 000 g for 15 min at 4°C, the supernatants were collected. The protein content concentrations of samples were determined according to the manufacturer’s protocol for the BCA protein assay kit (Thermo Scientific, Rockford, IL, United States).\nEqual amounts of protein were resolved using sodium dodecyl sulfate polyacrylamide gel electrophoresis (SDS-PAGE) and subsequently transferred to a 0.2 μm nitrocellulose membrane. The membranes underwent blocking for a minimum of 1 h in 5% skimmed milk diluted in TBST. Subsequently, the blots were incubated overnight at 4°C with primary antibodies. Primary antibodies used were include, Bcl-2 (ABclonal, Wuhan, China), Bax (Wanleibio, Shenyang, China), Caspase 9/p35/p10 antibody (Proteintech, Wuhan, China), Caspase 3/p17/p19 (Proteintech, Wuhan, China), PARP-1 (Proteintech, Wuhan, China), β-actin (Sigma-Aldrich, St Louis, MO, United States). Following incubation, the membranes were washed three times with TBST buffer and then incubated with secondary antibodies (Kangchen Biotechnology, Shanghai, China) for 1 h at room temperature. Subsequently, the blots were washed three times with TBST buffer and developed using an enhanced chemiluminescence reagent (Millipore Corporation, Bedford, MA, United States). The intensity of each protein band was quantitatively analyzed using ImageJ software."}, "Hela cells [8]": {"test_system": "Hela cells", "design": "method as in Huang et al., 2022", "details": "72-h treatment; ref Huang et al., 2022; read-out: IC50, cytotoxicity to Hela cells; cited from earlier work"}},
  "note": "Like-named read-outs stand apart in the source and are kept apart here.",
  "data": [
    {"smiles": "Nc1ccc(-c2nnc(CN3CCN(C(c4ccccc4)c4ccccc4)CC3)o2)cc1", "note": "[4d, N-benzhydryl-4-((5-(4-aminophenyl)-1,3,4-oxadiazol-2-yl)methyl)piperazine]", "values": [
      {"measurement": "IC50, HeLa cells", "setting": "Hela cells [1]", "result": "28.13 ± 0.21", "unit": "µg/mL"}
    ]},
    {"smiles": "COc1cccc2c1C(=O)c1c(O)c3c(c(O)c1C2=O)C[C@@](O)(C(=O)CO)C[C@@H]3O[C@H]1C[C@H](N)[C@H](O)[C@H](C)O1", "note": "[Doxorubicin, reference compound]", "values": [
      {"measurement": "viability at 10 µM", "setting": "Hela cells [2]", "result": "11.9 ± 1.2", "unit": "%"}
    ]},
    {"smiles": "COc1cc2ncnc(Nc3ccc(F)c(Cl)c3)c2cc1OCCCN1CCOCC1", "note": "[Gefitinib]", "values": [
      {"measurement": "viability at 10 µM", "setting": "Hela cells [2]", "result": "75.9 ± 2.88", "unit": "%"}
    ]},
    {"smiles": "COc1cc2ncnc(Nc3cccc(-c4cn(Cc5cc(Br)cc(Br)c5)nn4)c3)c2cc1OCCCN1CCOCC1", "note": "[c13, N-(3-(1-(3,5-dibromobenzyl)-1H-1,2,3-triazol-4-yl)phenyl)-7-methoxy-6-(3-morpholinopropoxy)quinazolin-4-amine]", "values": [
      {"measurement": "IC50", "setting": "HEK293T cells", "result": "> 100", "unit": "µM"},
      {"measurement": "Morphological changes of Hela cells", "setting": "Hela cells [3]", "result": "severe morphological changes"},
      {"measurement": "Apoptotic ratio of Hela cells", "setting": "Hela cells [4]", "result": "62.03% ± 9.48%"},
      {"measurement": "viability at 10 µM", "setting": "Hela cells [2]", "result": "32.6 ± 8.61", "unit": "%"},
      {"measurement": "IC50", "setting": "Hela cells [2]; read-out: IC50 against Hela cells", "result": "5.66 ± 0.35", "unit": "µM"},
      {"measurement": "Proportion of the G1 phase", "setting": "Hela cells [5]; 20 μM, printed as % of control group", "result": "52.05% ± 2.85%"},
      {"measurement": "Percentage of cells in the G2/M phase", "setting": "Hela cells [5]; 10 and 20 μM", "result": "upregulated"},
      {"measurement": "Colony formation ability of Hela cells", "setting": "Hela cells [6]", "result": "significantly inhibited the colony formation ability"},
      {"measurement": "IC50", "setting": "NIH3T3 cells", "result": "> 100", "unit": "µM"},
      {"measurement": "Level of cleaved-PARP1", "setting": "[7]", "result": "increase"},
      {"measurement": "Level of cleaved-caspase 3", "setting": "[7]", "result": "increase"},
      {"measurement": "Level of cleaved-caspase 9", "setting": "[7]", "result": "tendency of upregulation but had no significant difference"},
      {"measurement": "Protein expression of pro-apoptotic Bax", "setting": "[7]", "result": "enhanced"},
      {"measurement": "Protein level of anti-apoptotic Bcl-2", "setting": "[7]", "result": "diminished"},
      {"measurement": "Ratio of Bax to Bcl-2", "setting": "[7]", "result": "raised"},
      {"measurement": "Protein level of full-length PARP1", "setting": "[7]; vs control group", "result": "decreased"},
      {"measurement": "Protein level of full-length caspase 3", "setting": "[7]; vs control group", "result": "decreased"},
      {"measurement": "Protein level of full-length caspase 9", "setting": "[7]; vs control group", "result": "decreased"}
    ]},
    {"smiles": "C[C@]12CC[C@@H]3c4ccc(O)cc4CC[C@H]3[C@@H]1CC[C@@H]2O", "note": "[β-estradiol]", "values": [
      {"measurement": "IC50", "setting": "Hela cells [8]", "result": "18.7 ± 1.57", "unit": "µM"}
    ]}
  ]
}
